Measured values from article PMC7251097, “Aspartate/asparagine-β-hydroxylase: a high-throughput mass spectrometric assay for discovery of small molecule inhibitors” (Scientific Reports, 2020).
Structures can show the parent of a compound that is named as a salt. Where two headings read alike, the source gives them in different places. Values belong to the compound of their own block, whether it stands above or below them.

Biological target: T1, His6-AspH315–758 (human aspartate/asparagine-β-hydroxylase, AspH) (Homo sapiens, UniProt Q12797)
T1 construct: N-Terminally His6-tagged human AspH315–758 (His6-AspH315–758) was produced in E. coli BL21 (DE3) cells; made in house; host or cells: E. coli BL21 (DE3), pET-28a(+) vector
T1 sequence (Q12797 315-758): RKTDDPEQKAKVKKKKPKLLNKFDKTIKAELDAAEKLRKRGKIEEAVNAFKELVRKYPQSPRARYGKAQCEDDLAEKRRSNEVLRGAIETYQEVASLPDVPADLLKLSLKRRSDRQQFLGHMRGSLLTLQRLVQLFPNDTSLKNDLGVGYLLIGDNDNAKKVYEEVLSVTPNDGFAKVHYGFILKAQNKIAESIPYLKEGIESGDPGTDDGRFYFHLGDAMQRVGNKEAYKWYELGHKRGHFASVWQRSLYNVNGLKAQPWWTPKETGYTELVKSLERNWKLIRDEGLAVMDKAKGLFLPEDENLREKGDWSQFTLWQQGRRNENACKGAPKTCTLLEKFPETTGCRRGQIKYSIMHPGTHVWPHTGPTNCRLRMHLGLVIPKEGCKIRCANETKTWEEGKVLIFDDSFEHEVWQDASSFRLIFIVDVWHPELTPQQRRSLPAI
Assay: SPE-MS AspH inhibition assay (LOPAC screen at fixed 20 μM and IC50 dose-response), hydroxylation of cyclic peptide hFX-CP101–119
Type: biochemical
Details: for Inhibition at 20 µM [%]: AspH activity, fixed compound concentration 20 μM, initial LOPAC screen, 0.5%v/v DMSO

[1] = plate 5 (Pfitzer), test compounds at fixed 20 μM
[2] = plate 5 (Pfitzer), test compounds at fixed 20 μM, mean conversion DMSO 32.88
[3] = LOPAC compound at fixed 20 uM, plate 1, normalised to DMSO and 2,4-PDCA controls
[4] = LOPAC compound at fixed 20 uM, substrate conversion, plate 1
[5] = LOPAC Plate 4, compound at 20 uM, substrate conversion
[6] = LOPAC Plate 4, compound at 20 uM
[7] = LOPAC Plate 4, compound at 20 uM, read-out: % inhibition

SMILES: CCN(CC)c1ncnc2c1ncn2[C@@H]1O[C@H](COP(=O)([O-])OP(=O)([O-])C(Br)(Br)P(=O)([O-])O)[C@@H](O)[C@H]1O.[Na+].[Na+].[Na+] [ARL 67156 trisodium salt]
Plate 1 (% inhibition) [3]: 82.09%
Plate 1 (% conversion) [4]: 8.30%

SMILES: CC[C@H]1OC(=O)[C@H](C)[C@@H](O[C@H]2C[C@@](C)(OC)[C@@H](O)[C@H](C)O2)[C@H](C)[C@@H](O[C@@H]2O[C@H](C)C[C@H](NC)[C@H]2O)[C@](C)(O)C[C@@H](C)CN(C)[C@H](C)[C@@H](O)[C@]1(C)O [CP-64434]
Plate 5 (% conversion): 37.11%
Plate 5 (% inhibition): -2.34%

SMILES: O=C(O)CP(=O)(O)O [Phosphonoacetic acid]
% conversion [5]: 17.53%
inhibition at 20 µM [7]: 55.5%

SMILES: C[C@H]1CCC/C=C/[C@@H]2C[C@H](O)C[C@H]2[C@H](O)/C=C/C(=O)O1
Plate 1 (% conversion): 38.82%
Plate 1 (% inhibition): -8.79%

SMILES: Cc1cccc(C(=O)NCN2CCN(c3ccccc3C#N)CC2)c1.O=C(O)/C=C\C(=O)O [PD 168,077 maleate]
% inhibition [6]: 1.73%
% conversion [5]: 35.88%

SMILES: Nc1c[n+](N2CCOCC2)no1.[Cl-] [3-Morpholinosydnonimine hydrochloride]
Plate 1 (% inhibition) [3]: 64.67%
Plate 1 (% conversion) [4]: 14.15%

SMILES: Cl.Oc1cc2c(cc1O)C(c1ccccc1)CNCC2 (racemic) [(±)-SKF-38393 hydrochloride]
Plate 2 (% conversion): 10.11%
Plate 2 (% inhibition) (20 µM): 77.21%

SMILES: CCCc1nn(C)c2c(=O)[nH]c(-c3cc(S(=O)(=O)N4CCN(C)CC4)ccc3OCC)nc12.O=C(O)CC(O)(CC(=O)O)C(=O)O [Sildenafil citrate salt]
Plate 1 (% inhibition) [3]: 83.33%
Plate 1 (% conversion) [4]: 7.89%

SMILES: S=C(NC1CCCCC1)N1CCC(c2cnc[nH]2)CC1 [Thioperamide maleate]
% conversion: 37.27%
inhibition at 20 µM [7]: -2.35%

SMILES: NCCc1c[nH]c2ccc(O)cc12 [Serotonin hydrochloride]
Plate 2 (% conversion): 31.81%
inhibition at 20 µM (LOPAC compound at 20uM, plate 2, normalised to DMSO and 2,4-PDCA controls, read-out: Plate 2 (% inhibition)): 12.4%

Further lines, results first:

Plate 5 (% inhibition) [1]: 28.06%
Plate 5 (% conversion) [2]: 26.77%
SMILES: CCCN1CCC[C@@H](c2cccc(S(C)(=O)=O)c2)C1 [OSU6162]

Plate 2 (% conversion) (LOPAC compound at 20uM, plate 2, conversion of substrate peptide): 33.18%
Plate 2 (% inhibition) (LOPAC compound at 20uM, plate 2, normalised to DMSO and 2,4-PDCA controls): 8.29%
SMILES: CCCCC1(C2CCCC2)Cc2cc(OCC(=O)O)c(Cl)c(Cl)c2C1=O (stereo in doubt) [R(+)-Butylindazone]

% conversion [5]: 23.51%
Plate 5 (% inhibition) [1]: 13.59%
Plate 5 (% conversion) [2]: 31.69%
SMILES: O=C(CCSCc1ccco1)NNC(=O)N1Cc2ccccc2Oc2ccc(Cl)cc21 [SC-51322]

IC50 (50 nM His6-AspH315–758, 1.0 μM hFX-CP101–119, 3 μM 2OG, 2 μM Fe(II), 50 mM HEPES pH 7.5, 20 °C, mean ± SD, n = 2 (2,4-PDCA n = 10), read-out: IC50): 240 ± 80 nM
Plate 1 (% conversion) [4]: 3.16%
SMILES: O=C(O)/C=C/c1ccc(O)c(O)c1 [caffeic acid, reference compound]

% conversion [5]: 33.98%
SMILES: CC1=C(CC(=O)O)c2cc(F)ccc2/C1=C\c1ccc(S(C)(=O)=O)cc1 [Sulindac sulfone]

Inhibition at 20 µM [%]: 98.8%
% conversion [5]: 2.77%
SMILES: Br.Oc1cc2c(c(Cl)c1O)CCNCC2c1ccccc1 (racemic) [(±)-6-Chloro-PB hydrobromide, reference compound]

Plate 1 (% inhibition) [3]: 9.95%
Plate 1 (% conversion) [4]: 32.53%
SMILES: Cc1nnc(SCC2=C(C(=O)O)N3C(=O)[C@@H](NC(=O)Cn4cnnn4)[C@H]3SC2)s1 [Cefazolin sodium]

Plate 5 (% inhibition) [1]: 26.12%
Plate 5 (% conversion) [2]: 27.42%
SMILES: O=C1NCCc2[nH]c(-c3ccncc3)cc21 [PHA 767491]

% inhibition [6]: -13.34%
% conversion [5]: 41.02%
SMILES: CN(C)c1ccccc1CN1CCCN(Cc2ccccc2N(C)C)C1c1ccncc1 [GANT61]

% inhibition [6]: -0.28%
% conversion [5]: 36.57%
SMILES: N#CC(=C(/N)Sc1ccccc1N)/C(C#N)=C(/N)Sc1ccccc1N [U0126]

Plate 1 (% inhibition) [3]: 4.10%
Plate 1 (% conversion) [4]: 34.50%
SMILES: CC(=O)OCC(=O)[C@@]1(O)CC[C@H]2[C@@H]3CCC4=CC(=O)CC[C@]4(C)[C@H]3C(=O)C[C@@]21C [Cortisone 21-acetate]

% conversion [5]: 31.06%
SMILES: Cc1[nH]c(=O)c(C#N)cc1-c1ccc2nccn2c1.Cl [Olprinone hydrochloride]

Plate 5 (% inhibition) [1]: 21.27%
Plate 5 (% conversion) [2]: 29.07%
SMILES: CC(=O)c1cccc(N[C@H]2[C@H](N)[C@@](NC(=O)N(C)C)([C@H](C)O)[C@@](C)(O)[C@@]2(O)COC(=O)c2c(C)cccc2O)c1 [Pactamycin]

Inhibition at 20 µM [%]: 98.9%
SMILES: CC(Cc1ccc(O)c(O)c1)C(C)Cc1ccc(O)c(O)c1 (stereo not shown) [Nordihydroguaiaretic acid, reference compound]
